From publication PMC10294390 (BMC Complementary Medicine and Therapies, 2023)
Read-outs that look alike come from different tables or passages of the source.

Columns and labels:
DLD-1 colon tumor model = tested on: DLD-1 colon tumor model; parameters: method as in PMID 14692718; conditions: cited from earlier work
[1] = tested on: SW837 human rectum cancer cell line; assay: MTT assay, single and schedule-dependent combined treatment; format: cell-based; conditions: Sora 0.25-10 µM alone
[2] = tested on: SW1116 human colon cancer cell line; assay: as above; format: cell-based; conditions: Sora 0.25-10 µM alone; for IC80: Homo sapiens, SW 1116, 72 h, read-out: IC-values (µM): IC80
Protocol: (§1) The plates were washed, and PPCs [Cur, Kmf, or Que (60 or 120 µM), or Rsv (40 or 80 µM)] were added, followed by incubation at 37 °C for 48 h. For inverted sequential treatment, PPC [Cur, Kmf, or Que (60 or 120 µM), or Rsv (40 or 80 µM)] was added and incubated at 37 °C for 24 h. […] Cell growth was monitored as previously described.

[3] = tested on: SW837 human rectum cancer cell line; assay: as above; format: cell-based; conditions: Sora 0.25-10 µM alone; for IC50: Homo sapiens, SW837, SW837, read-out: IC-values (µM): IC50
Protocol: as §1

SW837 cells [4] = assay: Cell cycle analysis by flow cytometry (PI); format: cell-based, human; conditions: Sora 5 µM, 72 h
Protocol: (§2) The cells were subsequently processed using a DNA-prep kit and DNA-Prep EPICS workstation. The cells were treated with a non-ionic detergent to permeabilize the cell membrane, followed by propidium iodide (PI) and RNase, and incubated at 15–20 °C for 15 min. The cells were resuspended in binding buffer at a concentration of 3–10 × 10^6 cells/ml for optimal staining. Fluorescence was measured using a flow cytometer (Beckman Coulter, Inc.), and the percentage of cells in the different phases of the cell cycle was calculated using the Phoenix statistical software package, Advanced DNA cell cycle software (Phoenix Flow System).

SW1116 cells [5] = assay: Cell cycle analysis by flow cytometry (PI); format: cell-based, human; conditions: Sora 5 µM, 72 h
Protocol: as §2

[6] = clinical treatment with Sora, cited from earlier work
SW837 cells [7] = assay: Annexin V-FITC/PI double staining, flow cytometry; format: cell-based, human
Protocol: (§3) The levels of cell surface phosphatidylserine were determined to monitor the type of cell death and the kinetics of apoptosis. The CRC cell lines SW1116 and SW837 were seeded (2.5 × 10^5 cells/well) into 24-well plates and incubated in a non-CO2 incubator at 37 °C for 18 h. […] The cells were subsequently washed twice with HBSS and harvested using trypsin. Finally, the cells were double-stained using the Annexin V-FITC-Flous staining kit, according to the manufacturer’s instructions (Roche Diagnostic GmbH). Annexin V-Flous labelling solution containing Annexin V-FITC and PI (100 µl) was added to both the treated and control cell groups and incubated at 15–20 °C for 15 min. The cells (1 × 10^6 cells/ml) were then resuspended in binding buffer, and fluorescence was monitored using flow cytometry (FC500; Beckman Coulter, Inc.).

SW1116 cells [8] = assay: Annexin V-FITC/PI double staining, flow cytometry; format: cell-based, human
Protocol: as §3

SW837 cells [9] = assay: DNA fragmentation assay; format: cell-based, human; conditions: Sora 5 µM, PPC 200 and 400 µM, sequential combinations, 72 h, Fig. 8B, D
Protocol: (§4) Induction of apoptosis was monitored using a DNA fragmentation assay following the manufacturer’s instructions (Apoptotic DNA Ladder Detection kit; Abcam). […] Cells were subsequently incubated at 37 °C for 72 h. The cells were then trypsinized, harvested, washed, pelleted, and lysed using Tris–EDTA (TE) lysis buffer (35 µl). Enzyme A solution (RNase; 5 µl) was added, followed by incubation at 37 °C for 10 min. Enzyme B solution (proteinase; 5 µl) was then added, followed by incubation at 50 °C for 30 min. Ammonium acetate solution (5 µl) and isopropanol (50 µl) were added to each sample and incubated at -20 °C for 10 min. Finally, the DNA was pelleted, washed with 0.5 ml 70% methanol, and dissolved in 30 µl DNA suspension buffer. The extracted DNA samples were loaded onto a 1.2% agarose gel, along with a loading marker (1 kb DNA ladder), and subjected to electrophoresis, using a running buffer containing 1.35 µg/ml ethidium bromide at 5 V/cm for 1 h. Ethidium bromide-stained DNA bands were visualized using transillumination with UV light.

SW1116 cells [10] = assay: DNA fragmentation assay; format: cell-based, human; conditions: Sora 5 µM, PPC 200 and 400 µM, simultaneous combinations, 72 h, Fig. 8A, C
Protocol: as §4

[11] = arm a of simultaneous Sora and Cur 72 h
[12] = arm a of simultaneous Sora and Kmf 72 h
[13] = arm a of inverted sequential: Que 24 h followed by Sora 48 h
[14] = arm a of inverted sequential: Rsv 24 h followed by Sora 48 h
[15] = arm a of sequential: Sora 24 h followed by Que 48 h
[16] = arm a of sequential: Sora 24 h followed by Rsv 48 h

## CNC(=O)c1cc(Oc2ccc(NC(=O)Nc3ccc(Cl)c(C(F)(F)F)c3)cc2)ccn1 [Sora, sorafenib]
DLD-1 colon tumor model
  delay of tumor cell growth: 100%
[1]; Homo sapiens, SW837, 72 h, arm a of simultaneous Sora and Que 72 h, read-out: IC-values (µM): IC50
  IC50: 6.57 µM
[1]; [11]
  IC-values (µM): IC60: IC60 = 7.43 µM
[1]; [12]
  IC-values (µM): IC60: IC60 = 7.14 µM
[1]; arm a of simultaneous Sora and Rsv 72 h
  IC-values (µM): IC60: IC60 = 7.71 µM
[2]; [11]
  IC80: 4.86 µM
[2]; [12]
  IC80: 4.86 µM
[2]; arm a of simultaneous Sora and Que 72 h
  IC80: 4 µM
[2]; arm a of inverted sequential: Cur 24 h followed by Sora 48 h
  IC-values (µM): IC70: IC70 = 6.00 µM
[2]; arm a of inverted sequential: Kmf 24 h followed by Sora 48 h
  IC-values (µM): IC60: IC60 = 4.86 µM
[2]; [13]
  IC-values (µM): IC60: IC60 = 4.86 µM
[2]; [14]
  IC-values (µM): IC60: IC60 = 4.86 µM
[2]; arm a of sequential: Sora 24 h followed by Cur 48 h
  IC-values (µM): IC60: IC60 = 7.70 µM
[2]; arm a of sequential: Sora 24 h followed by Kmf 48 h
  IC-values (µM): IC60: IC60 = 0.57 µM
[2]; [15]
  IC-values (µM): IC60: IC60 = 0.57 µM
[2]; [16]
  IC-values (µM): IC60: IC60 = 0.57 µM
[3]; [13]
  IC50: 6.86 µM
[3]; [14]
  IC50: 6.57 µM
[3]; [15]
  IC50: 6.86 µM
[3]; [16]
  IC50: 6.86 µM
[3]; SW837, arm a of inverted sequential: Cur 24 h followed by Sora 48 h
  IC-values (µM): IC60: IC60 = 8.00 µM
[3]; SW837, arm a of inverted sequential: Kmf 24 h followed by Sora 48 h
  IC-values (µM): IC60: IC60 = 7.43 µM
[3]; SW837, arm a of sequential: Sora 24 h followed by Cur 48 h
  IC-values (µM): IC70: IC70 = 0.86 µM
[3]; SW837, arm a of sequential: Sora 24 h followed by Kmf 48 h
  IC-values (µM): IC60: IC60 = 7.43 µM
SW837 cells [4]
  %G0/G1 (cells in G0/G1 phase): 52.0%
  %G2/M (cells in G2/M phase): 12.9%
  %S (cells in S phase): 34.9%
  %SubG1 (cells in sub G1): 1.4%
SW1116 cells [5]
  %G0/G1 (cells in G0/G1 phase): 38.0%
  %G2/M (cells in G2/M phase): 0.0%
  %S (cells in S phase): 61.0%
  %SubG1 (cells in sub G1): 8.4%
[6]
  patients in whom side effects demand a dose reduction: > 60%
  patients with inhibition of treatment due to side effects: 6–25%
[6]; hand-foot syndrome, diarrhoea, fatigue, rash, weight loss
  patients developing toxic side effects: up to 80%
SW837 cells [7]; Homo sapiens, SW837, 72 h, read-out: B3, percentage of viable cells
  viability at 5 µM: 52.4%
SW837 cells [7]; SW837, Sora 5 µM, 72 h
  B1, percentage of necrotic cells: 9.6%
  B2, percentage of late apoptotic cells: 33.6%
  B4, percentage of early apoptotic cells: 4.7%
SW1116 cells [8]; Homo sapiens, SW 1116, 72 h, read-out: B3, percentage of viable cells
  viability at 5 µM: 14.1%
SW1116 cells [8]; SW1116, Sora 5 µM, 72 h
  B1, percentage of necrotic cells: 13.6%
  B2, percentage of late apoptotic cells: 37.3%
  B4, percentage of early apoptotic cells: 35%
SW837 cells [9]
  DNA fragmentation: increased levels of DNA fragmentation
SW1116 cells [10]
  induction of apoptosis as indicated by DNA fragmentation: marked induction of apoptosis
